In ChEMBL document CHEMBL3879884, “Compounds and therapeutical use thereof” (2005):
The source made the active and inactive calls. The calls are words filed in the database; no cut-off is given here.

Experiments:
[1] = target: T1, DNA topoisomerase II (Homo sapiens) (UniProt P11388+Q02880); test: Inhibition of DNA topoisomerase-2 (unknown origin) assessed as decrease in relaxation of supercoiled pRYG DNA at 12.5 to 100 uM after 50 mins by ethidium bromide staining-based agarose gel electrophoresis; assay type: protein assay
[2] = target: T1, DNA topoisomerase II (Homo sapiens); test: Binding affinity to p170 form of human DNA topoisomerase-2 at 50 nM in presence of UV irradiation after 60 mins by agarose gel electrophoresis; assay type: protein assay; settings: tested as the 3H-labelled form
[3] = target: T1, DNA topoisomerase II (Homo sapiens); test: Inhibition of DNA topoisomerase-2 (unknown origin) assessed as decrease in relaxation of supercoiled pRYG DNA at 1 to 10 uM after 50 mins by agarose gel electrophoresis; assay type: protein assay
Escherichia coli = test: Binding affinity to Escherichia coli supercoiled pRYG DNA assessed as reduction of DNA topoisomerase-1-mediated relaxation of supercoiled DNA at 1 to 10 uM by agarose gel electrophoresis
[4] = Cytotoxicity against human DLD cells assessed as inhibition of cell proliferation after 48 hrs by CellTiter-Glo assay; assay type: functional

COc1ccc(N(C)c2nc(Cl)nc3ccccc23)cc1
inhibition [1]: Active

Cc1nc(N(C)c2ccc(N=[N+]=[N-])cc2)c2ccccc2n1
Activity [2]: Active

CC[n+]1c(-c2ccccc2)c2cc(N)ccc2c2ccc(N)cc21
inhibition [3]: Active | Activity (Escherichia coli): Active

COc1ccc(Nc2nc(Cl)nc3ccccc23)cc1
GI50 [4]: > 10 µM
